One may read the % Inhibition as the change of the read-out against control, counted positive when it falls.

The target in one test is T1, RORγ (Mus musculus, UniProt P51450).
T1 construct: mRORγ (Pro-261-end); expressed in transfected cells
T1 sequence (P51450 261-516 limits assumed): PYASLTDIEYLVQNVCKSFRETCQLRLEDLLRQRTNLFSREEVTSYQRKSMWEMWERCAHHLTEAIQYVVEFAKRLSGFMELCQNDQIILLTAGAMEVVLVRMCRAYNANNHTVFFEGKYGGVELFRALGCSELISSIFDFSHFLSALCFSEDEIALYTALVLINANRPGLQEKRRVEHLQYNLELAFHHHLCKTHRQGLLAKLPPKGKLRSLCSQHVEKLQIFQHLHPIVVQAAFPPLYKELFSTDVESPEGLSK
The test is described as follows: Gal4-RORγ-LBD UAS-luciferase reporter assay in TRex-CHO-K1 cells (doxycycline-stimulated). It is filed as cell-based. The note with it: individual controls 1295.201-307, 5 μg/ml, triplicate. An excerpt:
The Gal4-DBD-ROR-LBD fusion proteins were subcloned in the pcDNA4/TO expression vector (Thermo Scientific) and transfected into TRex-CHO-K1 cells (Thermo Scientific) for tetracycline-controlled expression of the corresponding ROR proteins. Transfected cells were selected with hygromycin and Zeocin and individual clones for each of the Gal4-RORγ, Gal4-RORα, and Gal4-RORβ cell lines were isolated using a standard serial dilution protocol. Clones with the highest doxycycline-dependent stimulation of luciferase activity were selected for all functional experiments.
For screening FIU libraries, cells were resuspended in Ham’s F-12 assay medium containing 2% charcoal-treated FBS and no selection drugs. […] Cells were allowed to attach for 2 h, followed by compound treatment and stimulation with 20 ng/mL doxycycline for an additional 16–20 h. Appropriate solvent controls, negative controls with no doxycycline, and blanks with no cells were included in every plate. Prior to measuring luciferase activity, 6 µL of 0.15 mg/mL resazurin (Cayman Chemical) in PBS were added and cells were incubated for 1 h at 37 °C. Fluorescence intensity was detected at 545 nm excitation/590 nm emission using a CLARIOstar reader (BMGLabtech) as a measure of cell viability, to identify any potential cytotoxic effect of test compounds and mixtures.
Luminescence was normalized by the fluorescence intensity and the percentage of inhibition was calculated with respect to control cells stimulated with doxycycline in the presence of solvent control (0.1% DMF). All primary screens with individual compounds were performed in triplicate with a final concentration of 5 µg/mL. […] IC50 values were calculated using GraphPrism (GraphPad software).
In general terms: Reporter assays use an easily measured gene product as a stand-in for the process of interest.
Regarding `O=C(Cc1ccccc1)NC1=NC[C@@H](Cc2cccnc2)N1CCc1ccccc1` [1295.230], the “% Inhibition RORγ 5 μg/ml” value was -16.0%. Still for that read-out and setting: in the case of `O=C(Cc1ccccc1)NC1=NC[C@@H](Cc2ccc(Cl)cc2)N1CCc1ccccc1` [1295.226] it was 6.9%; in that of `CC(C)[C@H]1CN=C(NC(=O)Cc2ccccc2)N1CCc1ccccc1` [1295.206], 32.7%.

Regarding `CCC[C@H]1CN=C(NC(=O)Cc2ccccc2)N1CCc1ccccc1` [1295.215], the “% Inhibition RORγ 5 μg/ml” value is on record as 31.5%. Same read-out and setting: in the case of `O=C(Cc1ccccc1)NC1=NC[C@H](Cc2ccccc2)N1CCCc1ccccc1` [1295.251] it was -112.4%; in that of `CC(C)Cc1ccc(C(C)C(=O)NC2=NCC(Cc3ccccc3)N2CCc2ccccc2)cc1` (mixture of isomers) [1295.283], 58.6%; in that of `O=C(Cc1ccccc1)NC1=NC[C@H](Cc2ccccc2)N1CCCC1CCCC1` [1295.267], 56.2%.

On to `CCN1C(NC(=O)Cc2ccccc2)=NC[C@@H]1Cc1ccccc1` [1295.264], for which the “% Inhibition RORγ 5 μg/ml” value came out at 7.5%.

As for `O=C(Cc1ccccc1)NC1=NC[C@H](Cc2ccccc2)N1CCCCc1ccccc1` [1295.252], the “% Inhibition RORγ 5 μg/ml” value is reported as -2.3%. Consider `CCCC[C@H]1CN=C(NC(=O)Cc2ccccc2)N1CCc1ccccc1` [1295.217], for which the “% Inhibition RORγ 5 μg/ml” value is listed as 13.0%.

For `O=C(Cc1ccccc1)NC1=NC[C@H](Cc2ccc(O)cc2)N1CCc1ccccc1` [1295.207], the “% Inhibition RORγ 5 μg/ml” value is on record as -85.0%. On to `COc1ccc(CCC(=O)NC2=NC[C@H](Cc3ccccc3)N2CCc2ccccc2)cc1OC` [1295.284], for which the “% Inhibition RORγ 5 μg/ml” value is 34.0%. Regarding `O=C(Cc1ccccc1)NC1=NC[C@@H](Cc2ccc3ccccc3c2)N1CCc1ccccc1` [1295.222], the “% Inhibition RORγ 5 μg/ml” value is listed as 22.4%. Same read-out and setting: next, `CCC(CN1C(NC(=O)Cc2ccccc2)=NCC1Cc1ccccc1)c1ccccc1` (mixture of isomers) [1295.235]: 35.8%.

Regarding `COc1cccc(CCN2C(NC(=O)Cc3ccccc3)=NC[C@@H]2Cc2ccccc2)c1` [1295.241], the “% Inhibition RORγ 5 μg/ml” value is on record as 7.4%.

Take `O=C(Cc1ccccc1)NC1=NC[C@H](Cc2ccc(F)cc2)N1CCc1ccccc1` [1295.227]: the “% Inhibition RORγ 5 μg/ml” value is -8.2%. Same read-out and setting: next, `O=C(Cc1ccccc1)NC1=NC[C@H](Cc2ccc(Cl)cc2)N1CCc1ccccc1` [1295.225]: -32.6%. In the case of `O=C(Cc1ccccc1)NC1=NC[C@H](c2ccccc2)N1CCc1ccccc1` [1295.219], the “% Inhibition RORγ 5 μg/ml” value was 0.1%. On to `O=C(CCC1CCCC1)NC1=NC[C@H](Cc2ccccc2)N1CCc1ccccc1` [1295.304], for which the “% Inhibition RORγ 5 μg/ml” value came to 45.5%. Still for that read-out and setting: in the case of `O=C(Cc1ccccc1)NC1=NC[C@H](Cc2ccccc2)N1CCc1ccccc1` [1295.250] it was 9.9%; in that of `O=C(Cc1ccccc1)NC1=NCCN1CCc1ccccc1` [1295.203], -29.5%; in that of `COc1ccc(CCN2C(NC(=O)Cc3ccccc3)=NC[C@@H]2Cc2ccccc2)cc1OC` [1295.249], 42.2%. Take `CCc1ccc(-c2ccc(C(=O)NC3=NC[C@H](Cc4ccccc4)N3CCc3ccccc3)cc2)cc1` [1295.292]: the “% Inhibition RORγ 5 μg/ml” value came out at 48.3%. Still for that read-out and setting: in the case of `CC(C)(C)[C@@H]1CN=C(NC(=O)Cc2ccccc2)N1CCc1ccccc1` [1295.232] it was 8.2%.

Another test deals with T1, RORγ. The description is as above. Format: cell-based. The note with it: library 2520, RORγ cells.
Regarding `COc1ccc(CC(=O)NC2=NCC(Cc3ccccc3)N2CCC(C)c2ccccc2)cc1` (mixture of isomers) [2520.34], the “% Inhibition at 4 μM (N=3)” value is recorded as 34.4%. Same read-out and setting: next, `CC(C)C(=O)NC1=NC[C@H](Cc2ccc3ccccc3c2)N1CC1CCCCC1` [2520.12]: 30.4%; `CCC(C)C1CN=C(NC(=O)Cc2ccc(OC)cc2)N1CCC1CC2CCC1C2` (mixture of isomers) [2520.14]: 43.0%; `CC(C)C(=O)NC1=NCC(Cc2ccc3ccccc3c2)N1CCC(C)c1ccccc1` (mixture of isomers) [2520.04]: -40.8%. Same read-out and setting: next, `CCOc1ccc(CC2CN=C(NC(=O)C(C)C)N2CCC(C)c2ccccc2)cc1` (mixture of isomers) [2520.40]: -8.1%; `CCC(C(=O)NC1=NCC(Cc2ccc3ccccc3c2)N1CCC(C)c1ccccc1)c1ccccc1` (mixture of isomers) [2520.07]: -32.2%. Same read-out and setting: next, `CCC(C(=O)NC1=NCC(C(C)CC)N1CCC1CC2CCC1C2)c1ccccc1` (mixture of isomers) [2520.23]: 35.9%; `COc1ccc(CC(=O)NC2=NC[C@H](Cc3ccccc3)N2CC2CCCCC2)cc1` [2520.30]: -4.8%. In the case of `COc1ccc(CC(=O)NC2=NCC(Cc3ccc4ccccc4c3)N2CCC2CC3CCC2C3)cc1` (mixture of isomers) [2520.02], the “% Inhibition at 4 μM (N=3)” value is -33.8%. On the same count and under the same terms, next, `CCOc1ccc(CC2CN=C(NC(=O)C(CC)c3ccccc3)N2CCC(C)c2ccccc2)cc1` (mixture of isomers) [2520.43]: -5.4%; `COc1ccc(CC(=O)NC2=NCC(Cc3ccccc3)N2CCC2CC3CCC2C3)cc1` (mixture of isomers) [2520.26]: 40.8%; `CCC(C)C1CN=C(NC(=O)C(C)C)N1CCC1CC2CCC1C2` (mixture of isomers) [2520.20]: 13.3%.

As for `CC(C)C(=O)NC1=NC[C@H](Cc2ccccc2)N1CC1CCCCC1` [2520.36], the “% Inhibition at 4 μM (N=3)” value is listed as -5.4%. On the same count and under the same terms, next, `CC(C)C(=O)NC1=NCC(Cc2ccccc2)N1CCC1CC2CCC1C2` (mixture of isomers) [2520.32]: 36.0%; `COc1ccc(CC(=O)NC2=NCC(Cc3ccc4ccccc4c3)N2CCC(C)c2ccccc2)cc1` (mixture of isomers) [2520.10]: -7.3%.

For the compound `CCOc1ccc(CC2CN=C(NC(=O)Cc3ccc(OC)cc3)N2CCC2CC3CCC2C3)cc1` (mixture of isomers) [2520.38], the “% Inhibition at 4 μM (N=3)” value is listed as -22.6%.

`CCOc1ccc(CC2CN=C(NC(=O)C(C)C)N2CCC2CC3CCC2C3)cc1` (mixture of isomers) [2520.44]: the “% Inhibition at 4 μM (N=3)” value was -20.0%. For `CCC(C(=O)NC1=NCC(Cc2ccccc2)N1CCC1CC2CCC1C2)c1ccccc1` (mixture of isomers) [2520.35], the “% Inhibition at 4 μM (N=3)” value was -21.7%. The same measure, in the same setting: in the case of `COc1ccc(CC(=O)NC2=NC[C@H](Cc3ccc4ccccc4c3)N2CC2CCCCC2)cc1` [2520.06] it was -56.4%; in that of `CC[C@H](C)[C@H]1CN=C(NC(=O)Cc2ccc(OC)cc2)N1CC1CCCCC1` [2520.18], 26.2%.

In the case of `CCC(C(=O)NC1=NCC(Cc2ccc3ccccc3c2)N1CC1CCCCC1)c1ccccc1` (mixture of isomers) [2520.03], the “% Inhibition at 4 μM (N=3)” value is given as -31.8%.

The record behind these values is article PMC9029089, “1,5-Disubstituted Acylated 2-Amino-4,5-dihydroimidazoles as a New Class of Retinoic Acid Receptor–Related Orphan Receptor (ROR) Inhibitors” (International Journal of Molecular Sciences, 2022).
